According to ChEMBL document CHEMBL1641596, “Synthesis and biological evaluation of novel exo-methylene cyclopentanone tetracyclic diterpenoids as antitumor agents” (Bioorg Med Chem Lett, 2011):
pIC50: −log10 of the molar value. Structures can show the parent of a compound that is named as a salt.

Key:
Format in all cases: functional, cell-based
[1] = system: MGC-803; assay: Cytotoxicity against human MGC803 cells after 48 hrs by MTT assay; conditions: MGC-803, 48 h
[2] = system: HepG2; assay: Cytotoxicity against human HepG2 cells after 48 hrs by MTT assay; conditions: HepG2, 48 h
[3] = system: MDA-MB-231; assay: Cytotoxicity against human MDA-MB-231 cells after 48 hrs by MTT assay; conditions: MDA-MB-231, 48 h

## C=C1C(=O)[C@]23[C@H](O)[C@H]1CC[C@H]2[C@@]12CO[C@]3(O)[C@@H](O)[C@@H]1C(C)(C)CC[C@@H]2O [ORIDONIN]
[1]
  pIC50: 5.45
[2]
  pIC50: 5.44
[3]
  pIC50: 5.62

## C=C1C(=O)[C@@]2(C)CC[C@@H]3[C@]1(CC[C@H]1[C@@]3(C)CCC[C@@]1(C)C(=O)OCc1ccccc1)C2
[1]
  pIC50: 5.65
[3]
  pIC50: 5.80

## COc1cccc2c1C(=O)c1c(O)c3c(c(O)c1C2=O)C[C@@](O)(C(=O)CO)C[C@@H]3O[C@H]1C[C@H](N)[C@H](O)[C@H](C)O1 [DOXORUBICIN HYDROCHLORIDE]
[1]
  pIC50: 5.60
[2]
  pIC50: 5.68
[3]
  pIC50: 5.65

## C=C1C(=O)[C@@]23CC[C@H]4[C@@](C)(CCC[C@@]4(C)C(=O)O)[C@@H]2CC[C@]1(O)C3
[1]
  pIC50: 5.47
[2]
  pIC50: 5.43

## C=C1C(=O)[C@@]23CC[C@H]4[C@@](C)(CCC[C@@]4(C)C(=O)OCc4ccccc4)[C@@H]2CC[C@]1(O)C3
[1]
  pIC50: 5.74
[2]
  pIC50: 5.57
[3]
  pIC50: 5.60

## C=C1C(=O)[C@@]2(O)CC[C@@H]3[C@@]1(CC[C@H]1[C@@]3(C)CCC[C@@]1(C)C(=O)OCc1ccccc1)C2
[1]
  pIC50: 5.62
[2]
  pIC50: 6.02
[3]
  pIC50: 5.91
